Data: US11753433B2, “Methods of synthesizing substituted purine compounds” (Epizyme, Inc., priority 2013, dated 2023)

Assays:
Assay type in all cases: physicochemical
[1] = Equilibrium solubility in organic solvents; details: RT; for solubility at 24 h: organic solvent or mixture, thermodynamic from solid
Procedure: Approximately 10 mg of Form B was weighed into a 1-ml glass vial followed by addition of 0.5 ml relevant media. Each sample was continuously stirred using a magnetic stir bar at 25° C. for 24 h. The suspension was then filtered using a nylon membrane with a pore diameter of 0.22 μm. The filtrates were diluted for HPLC analysis and final pH was measured. The solid residue of each sample was collected for XRPD analysis. The solubility of Form B was also determined in commonly used organic solvents (diluents or HPLC mobile phase). The solubility data summarized in Table 10 indicates Form B is quite soluble in MeOH, EtOH, and IPA.

[2] = Solid-state photostability
Procedure: The solid-state photostability of EP-1 trihydrate (x is 3) was assessed upon exposure to UV/Vis light according to ICH guidelines. Loss of claim %, loss of area %, and degradates were evaluated versus dark control samples.
Solid-State Photostability: Weighed ˜5 mg Form B into glass vials with 2 vials covered with foil as the controls. Put these 2 samples with their controls into chamber and expose them to Vis (10 Kilo lux) for 120 hrs followed by UV (10 W/m^2) for 20 hrs (per ICH guidelines). At the end of Vis, take 1 sample and 1 control out for analysis and the others were taken out after both Vis and UV exposure.

Solution stability = assay: Solution stability
Procedure: 0.1 mg/ml solutions of Form B were prepared in five buffers, including 0.01N HCl (pH 2), 50 mM sodium citrate (pH 4), 50 mM sodium citrate (pH 6), 50 mM sodium phosphate (pH 8), and 50 mM sodium carbonate (pH 10). Methanol was added as a co-solvent to dissolve Form B in buffers (i.e., 10% (v/v) in pH 2, 4, and 6 buffers, 20% (v/v) in pH 8 buffer, and 30% (v/v) in pH 10 buffer). Each buffer solution containing Form B was stored at 3 different temperatures: 25° C., 37° C., and 50° C. Aliquots were taken for HPLC analysis after 1 day and 7 days. pH values were also measured before and after the stability experiments.

[3] = Bulk control (covered with foil), Vis Stability (1.2 Mil lux-hours)
[4] = Bulk control (covered with foil), Vis-UV stability (1.2 Mil lux-hours + 200 Watt-hours/m^2)
[5] = Bulk, Vis Stability (1.2 Mil lux-hours)
[6] = Bulk, Vis-UV stability (1.2 Mil lux-hours + 200 Watt-hours/m^2)

SMILES: CC(C)N(C[C@H]1O[C@@H](n2cnc3c(N)ncnc32)[C@H](O)[C@@H]1O)[C@H]1C[C@@H](CCc2nc3cc(C(C)(C)C)ccc3[nH]2)C1 [Form B, (2R,3R,4S,5R)-2-(6-amino-9H-purin-9-yl)-5-((((1r,3S)-3-(2-(5-(tert-butyl)-1H-benzo[d]imidazol-2-yl)ethyl)cyclobutyl)(isopropyl)amino)methyl)tetrahydrofuran-3,4-diol trihydrate]
- Remaining Solid ([1]; Acetone): Form B
- Remaining Solid ([1]; Acetonitrile): Form B
- Remaining Solid ([1]; Ethanol): No solid obtained
- Remaining Solid ([1]; Isopropanol): No solid obtained
- solubility (in words) ([1]; MeOH, EtOH, and IPA): quite soluble
- Remaining Solid ([1]; Methanol): No solid obtained
- solubility at 24 h ([1]; Acetone): 23.9 mg/mL
- solubility at 24 h ([1]; Acetonitrile): 1.5 mg/mL
- solubility at 24 h ([1]; Ethanol): > 87 mg/mL
- solubility at 24 h ([1]; Isopropanol): > 129 mg/mL
- solubility at 24 h ([1]; Methanol): > 200 mg/mL
- % area [2, 3]: 99.7%
- % claim [2, 3]: 100.0%
- % area [2, 4]: 99.8%
- % claim [2, 4]: 100.0%
- % area [2, 5]: 99.8%
- % claim [2, 5]: 101.1%
- % area [2, 6]: 99.8%
- % claim [2, 6]: 99.6%
- solid-state photostability (in words) ([2]; bulk, full ICH photostability exposure): stable upon exposure to full ICH photostability requirement
- % area (Solution stability; pH 2, 25° C., 24 h): 98.7%
- % claim (Solution stability; pH 2, 25° C., 24 h): 97.1%
- pH (Solution stability; pH 2, 25° C., 24 h): 2.1
- % area (Solution stability; pH 2, 25° C., 7 days): 98.5%
- % claim (Solution stability; pH 2, 25° C., 7 days): 99.1%
- pH (Solution stability; pH 2, 25° C., 7 days): 2.1
- % area (Solution stability; pH 2, 37° C., 24 h): 98.7%
- % claim (Solution stability; pH 2, 37° C., 24 h): 96.8%
- pH (Solution stability; pH 2, 37° C., 24 h): 2.1
- % area (Solution stability; pH 2, 37° C., 7 days): 98.4%
- % claim (Solution stability; pH 2, 37° C., 7 days): 97.5%
- pH (Solution stability; pH 2, 37° C., 7 days): 2.1
- % area (Solution stability; pH 2, 50° C., 24 h): 98.3%
- % claim (Solution stability; pH 2, 50° C., 24 h): 97.0%
- pH (Solution stability; pH 2, 50° C., 24 h): 2.1
- % area (Solution stability; pH 2, 50° C., 7 days): 98.4%
- % claim (Solution stability; pH 2, 50° C., 7 days): 97.0%
- pH (Solution stability; pH 2, 50° C., 7 days): 2.1
- degradation in solution (Solution stability; pH 2-10 buffers, 25-50° C., up to 7 days): less than 5%
- % area (Solution stability; pH 4, 25° C., 24 h): 99.4%
- % claim (Solution stability; pH 4, 25° C., 24 h): 97.4%
- pH (Solution stability; pH 4, 25° C., 24 h): 4.2
- % area (Solution stability; pH 4, 25° C., 7 days): 99.6%
- % claim (Solution stability; pH 4, 25° C., 7 days): 100.2%
- pH (Solution stability; pH 4, 25° C., 7 days): 4.2
- % area (Solution stability; pH 4, 37° C., 24 h): 99.4%
- % claim (Solution stability; pH 4, 37° C., 24 h): 97.6%
- pH (Solution stability; pH 4, 37° C., 24 h): 4.1
- % area (Solution stability; pH 4, 37° C., 7 days): 99.5%
- % claim (Solution stability; pH 4, 37° C., 7 days): 99.0%
- pH (Solution stability; pH 4, 37° C., 7 days): 4.1
- % area (Solution stability; pH 4, 50° C., 24 h): 99.4%
- % claim (Solution stability; pH 4, 50° C., 24 h): 97.6%
- pH (Solution stability; pH 4, 50° C., 24 h): 4.1
- % area (Solution stability; pH 4, 50° C., 7 days): 99.5%
- % claim (Solution stability; pH 4, 50° C., 7 days): 98.7%
- pH (Solution stability; pH 4, 50° C., 7 days): 4.2
- % area (Solution stability; pH 6, 25° C., 24 h): 99.2%
- % claim (Solution stability; pH 6, 25° C., 24 h): 98.0%
- pH (Solution stability; pH 6, 25° C., 24 h): 6.2
- % area (Solution stability; pH 6, 25° C., 7 days): 99.5%
- % claim (Solution stability; pH 6, 25° C., 7 days): 100.0%
- pH (Solution stability; pH 6, 25° C., 7 days): 6.2
- % area (Solution stability; pH 6, 37° C., 24 h): 99.3%
- % claim (Solution stability; pH 6, 37° C., 24 h): 97.9%
- pH (Solution stability; pH 6, 37° C., 24 h): 6.2
- % area (Solution stability; pH 6, 37° C., 7 days): 99.4%
- % claim (Solution stability; pH 6, 37° C., 7 days): 99.0%
- pH (Solution stability; pH 6, 37° C., 7 days): 6.3
- % area (Solution stability; pH 6, 50° C., 24 h): 99.3%
- % claim (Solution stability; pH 6, 50° C., 24 h): 98.1%
- pH (Solution stability; pH 6, 50° C., 24 h): 6.2
- % area (Solution stability; pH 6, 50° C., 7 days): 99.5%
- % claim (Solution stability; pH 6, 50° C., 7 days): 98.9%
- pH (Solution stability; pH 6, 50° C., 7 days): 6.2
- % area (Solution stability; pH 8, 25° C., 24 h): 99.2%
- % claim (Solution stability; pH 8, 25° C., 24 h): 98.0%
- pH (Solution stability; pH 8, 25° C., 24 h): 8.2
- % area (Solution stability; pH 8, 25° C., 7 days): 99.5%
- % claim (Solution stability; pH 8, 25° C., 7 days): 99.8%
- pH (Solution stability; pH 8, 25° C., 7 days): 8.2
- % area (Solution stability; pH 8, 37° C., 24 h): 99.5%
- % claim (Solution stability; pH 8, 37° C., 24 h): 98.4%
- pH (Solution stability; pH 8, 37° C., 24 h): 8.2
- % area (Solution stability; pH 8, 37° C., 7 days): 99.5%
- % claim (Solution stability; pH 8, 37° C., 7 days): 99.3%
- pH (Solution stability; pH 8, 37° C., 7 days): 8.3
- % area (Solution stability; pH 8, 50° C., 24 h): 99.5%
- % claim (Solution stability; pH 8, 50° C., 24 h): 98.0%
- pH (Solution stability; pH 8, 50° C., 24 h): 8.3
- % area (Solution stability; pH 8, 50° C., 7 days): 99.5%
- % claim (Solution stability; pH 8, 50° C., 7 days): 98.8%
- pH (Solution stability; pH 8, 50° C., 7 days): 8.3
- % area (Solution stability; pH 10, 25° C., 24 h): 99.4%
- % claim (Solution stability; pH 10, 25° C., 24 h): 98.0%
- pH (Solution stability; pH 10, 25° C., 24 h): 10.9
- % area (Solution stability; pH 10, 25° C., 7 days): 99.4%
- % claim (Solution stability; pH 10, 25° C., 7 days): 99.7%
- pH (Solution stability; pH 10, 25° C., 7 days): 10.9
- % area (Solution stability; pH 10, 37° C., 24 h): 99.4%
- % claim (Solution stability; pH 10, 37° C., 24 h): 98.2%
- pH (Solution stability; pH 10, 37° C., 24 h): 10.9
- % area (Solution stability; pH 10, 37° C., 7 days): 99.4%
- % claim (Solution stability; pH 10, 37° C., 7 days): 99.0%
- pH (Solution stability; pH 10, 37° C., 7 days): 10.9
- % area (Solution stability; pH 10, 50° C., 24 h): 99.5%
- % claim (Solution stability; pH 10, 50° C., 24 h): 97.9%
- pH (Solution stability; pH 10, 50° C., 24 h): 11.0
- % area (Solution stability; pH 10, 50° C., 7 days): 99.4%
- % claim (Solution stability; pH 10, 50° C., 7 days): 98.9%
- pH (Solution stability; pH 10, 50° C., 7 days): 10.9
